Measurements published in patent US11059810B2, “Pharmaceutically acceptable salt as renal outer medullary potassium channel inhibitor” (Jiangsu Hengrui Medicine Co., Ltd., priority 2016, dated 2021).

Columns and labels:
[1] = Pharmacokinetics assay in SD rats after intragastric administration (plasma LC/MS/MS); type: in vivo; conditions: po 5.0 mg/kg; for CL/F: read-out: Cl/F—obs (clearance)
Protocol: SD rats were used as test animals. The drug concentration in plasma at different time points was determined by LC/MS/MS method after intragastrical administration of the crystal form 2 of the malate of the present invention and free form. The pharmacokinetic behavior and property of the crystal form 2 of the malate of the present invention and free form were studied and evaluated in SD rats.
Samples: crystal form 2 of the malate of the present invention and free form (the product of Example 1), prepared according to the methods of Examples 14 and 1.
Test animals: 8 healthy SD rats, half male and half female, were divided in two groups, and purchased from SINO-BRITSH SIPPR/BK LAB. ANIMAL LTD., CO, with certificate No.: SOCK (Shanghai) 2008-0016.
Preparation of the test compounds: the test compounds were added to 0.5% CMC-Na to prepare 0.5 mg/mL homogeneous suspensions for oral administration by ultrasound.
Administration: after an overnight fasting, 8 healthy SD rats, half male and half female, were administered the test compounds intragastrically at an administration volume of 10 mL/kg.
After an overnight fasting, 8 healthy SD rats, half male and half female, were administered the test compounds intragastrically. Blood samples (0.1 mL) were taken by jugular vein puncture before administration and at 0.5, 1, 2, 4, 6, 8, 12, and 24 hours after administration, and heparin sodium was used as an anticoagulant. The blood samples were centrifuged for 10 minutes at 3,500 rpm to separate the blood plasma, which was stored at −20° C. The content of the test compound in the plasma of SD rats after intragastric administration was determined by LC/MS/MS method.

[2] = Stability of crystal forms spread flat in air under lighting, heating and high humidity (purity by HPLC); type: physicochemical
Protocol: The sample of crystal form I of the compound of formula (I) prepared in Example 2 and the sample of crystal form II prepared in Example 3 were spread flat in the air respectively to test the stability under conditions of lighting (4500 Lux), heating (40° C., 60° C.), and high humidity (RH 75%, RH 90%). Samplings were carried out on Day 5 and Day 10.

[3] = Special stability study of crystal form I (grinding, heating, tableting; XRPD/DSC); type: physicochemical
Text: Crystal form I of the compound of formula (I) prepared according to the method of Example 2 was ground, heated and tableted.

[4] = Salt formation study (solubility, hygroscopicity); type: physicochemical; conditions: in words
Text: In a preferred embodiment, the salt can be selected from the group consisting of tartrate, hydrochloride, sulfate, methanesulfonate, phosphate, citrate, maleate, fumarate, malate, benzenesulfonate, p-toluenesulfonate and hydrobromide, and most preferably L-tartrate and malate. The L-tartrate of (R)-5-cyano-N-(1-(2-hydroxy-2-(4-methyl-1-oxo-1,3-dihydroisobenzofuran-5-yl)ethyl) piperidin-4-yl)-4-methoxypicolinamide, i.e. the compound of the following formula (I), can be obtained by reacting (R)-5-cyano-N-(1-(2-hydroxy-2-(4-methyl-1-oxo-1,3-dihydroisobenzofuran-5-yl)ethyl) piperidin-4-yl)-4-methoxypicolinamide with L-tartaric acid. The hydrochloride, sulfate, methanesulfonate, phosphate, citrate, maleate, fumarate, malate, benzenesulfonate, p-toluenesulfonate and hydrobromide of (R)-5-cyano-N-(1-(2-hydroxy-2-(4-methyl-1-oxo-1,3-dihydroisobenzofuran-5-yl)ethyl) piperidin-4-yl)-4-methoxypicolinamide can be prepared by using a similar method. […]

[5] = both sexes, rat, plasma, 0.5% CMC-Na suspension

SMILES | CL/F [1, 5] [mL/min/kg] | AUClast (area under curve 0→t) ([1]; 0.5% CMC-Na suspension) [ng·h/mL] | purity as detected by HPLC ([2]; 40° C., day 0) [%] | purity as detected by HPLC ([2]; 40° C., day 5) [%] | purity as detected by HPLC ([2]; 40° C., day 10) [%] | purity as detected by HPLC ([2]; 60° C., day 0) [%] | purity as detected by HPLC ([2]; 60° C., day 5) [%] | purity as detected by HPLC ([2]; 60° C., day 10) [%] | purity as detected by HPLC ([2]; Lighting (4500 Lux), day 0) [%] | purity as detected by HPLC ([2]; Lighting (4500 Lux), day 5) [%] | purity as detected by HPLC ([2]; Lighting (4500 Lux), day 10) [%] | purity as detected by HPLC ([2]; RH 75%, day 0) [%] | purity as detected by HPLC ([2]; RH 75%, day 5) [%] | purity as detected by HPLC ([2]; RH 75%, day 10) [%] | purity as detected by HPLC ([2]; RH 90%, day 0) [%] | purity as detected by HPLC ([2]; RH 90%, day 5) [%] | purity as detected by HPLC ([2]; RH 90%, day 10) [%] | other results
COc1cc(C(=O)NC2CCN(C[C@H](O)c3ccc4c(c3C)COC4=O)CC2)ncc1C#N [Free form, (R)-5-cyano-N-(1-(2-hydroxy-2-(4-methyl-1-oxo-1,3-dihydroisobenzofuran-5-yl)ethyl)piperidin-4-yl)-4-methoxypicolinamide] | 9.82 | 9283 |  |  |  |  |  |  |  |  |  |  |  |  |  |  |  | solubility [4]: low
COc1cc(C(=O)NC2CCN(C[C@H](O)c3ccc4c(c3C)COC4=O)CC2)ncc1C#N [sulfate, (R)-5-cyano-N-(1-(2-hydroxy-2-(4-methyl-1-oxo-1,3-dihydroisobenzofuran-5-yl)ethyl)piperidin-4-yl)-4-methoxypicolinamide] |  |  |  |  |  |  |  |  |  |  |  |  |  |  |  |  |  | hygroscopicity ([4]; salt formation study): obviously hygroscopic

The next lines start with results.

CL/F [1, 5] [mL/min/kg] | AUClast (area under curve 0→t) ([1]; 0.5% CMC-Na suspension) [ng·h/mL] | purity as detected by HPLC ([2]; 40° C., day 0) [%] | purity as detected by HPLC ([2]; 40° C., day 5) [%] | purity as detected by HPLC ([2]; 40° C., day 10) [%] | purity as detected by HPLC ([2]; 60° C., day 0) [%] | purity as detected by HPLC ([2]; 60° C., day 5) [%] | purity as detected by HPLC ([2]; 60° C., day 10) [%] | purity as detected by HPLC ([2]; Lighting (4500 Lux), day 0) [%] | purity as detected by HPLC ([2]; Lighting (4500 Lux), day 5) [%] | purity as detected by HPLC ([2]; Lighting (4500 Lux), day 10) [%] | purity as detected by HPLC ([2]; RH 75%, day 0) [%] | purity as detected by HPLC ([2]; RH 75%, day 5) [%] | purity as detected by HPLC ([2]; RH 75%, day 10) [%] | purity as detected by HPLC ([2]; RH 90%, day 0) [%] | purity as detected by HPLC ([2]; RH 90%, day 5) [%] | purity as detected by HPLC ([2]; RH 90%, day 10) [%] | SMILES | other results
6.87 | 13365 |  |  |  |  |  |  |  |  |  |  |  |  |  |  |  | COc1cc(C(=O)NC2CCN(C[C@H](O)c3ccc4c(c3C)COC4=O)CC2)ncc1C#N.O=C(O)CC(O)C(=O)O [Crystal form 2 of the malate, (R)-5-cyano-N-(1-(2-hydroxy-2-(4-methyl-1-oxo-1,3-dihydroisobenzofuran-5-yl)ethyl)piperidin-4-yl)-4-methoxypicolinamide] | half-life ([1]; both sexes, rat, plasma, 0.5% CMC-Na suspension, read-out: T1/2 (half-life) (converted)): 5.24 h; Vd/F ([1]; both sexes, rat, plasma, 0.5% CMC-Na suspension, read-out: Vz/F—obs (apparent distribution volume)): 3.09 L/kg; clearance compared to the free form ([1]; in words): lower; exposure dose compared to the free form ([1]; in words): higher; half-life compared to the free form ([1]; in words): longer
 |  | 99.67 | 99.52 | 99.45 | 99.67 | 99.55 | 99.39 | 99.67 | 99.54 | 99.34 | 99.67 | 99.53 | 99.39 | 99.67 | 99.59 | 99.43 | COc1cc(C(=O)NC2CCN(C[C@H](O)c3ccc4c(c3C)COC4=O)CC2)ncc1C#N.O=C(O)C(O)C(O)C(=O)O [Crystal form I, L-tartrate of (R)-5-cyano-N-(1-(2-hydroxy-2-(4-methyl-1-oxo-1,3-dihydroisobenzofuran-5-yl)ethyl)piperidin-4-yl)-4-methoxypicolinamide] | stability under conditions of lighting, high temperature and high humidity ([2]; in words): stable; stability compared with crystal form II ([2]; spread flat in air, lighting, high temperature and high humidity, in words): significantly better; DSC peak after treatment ([3]; Grinding treatment for 10 minutes in a mortar under nitrogen): 214.17 °C; DSC peak after treatment ([3]; Heating treatment for 3 hours at 80° C.): 214.40 °C; DSC peak after treatment ([3]; Tableting treatment): 214.44 °C; stability of the crystal form ([3]; grinding, heating / pressure (tableting), in words): stable
 |  | 99.47 | 99.38 | 99.15 | 99.47 | 99.22 | 98.87 | 99.47 | 99.23 | 98.62 | 99.47 | 99.30 | 99.10 | 99.47 | 99.30 | 99.10 | COc1cc(C(=O)NC2CCN(C[C@H](O)c3ccc4c(c3C)COC4=O)CC2)ncc1C#N.O=C(O)C(O)C(O)C(=O)O [Crystal form II, L-tartrate of (R)-5-cyano-N-(1-(2-hydroxy-2-(4-methyl-1-oxo-1,3-dihydroisobenzofuran-5-yl)ethyl)piperidin-4-yl)-4-methoxypicolinamide] | 
